Biological target: Neuronal acetylcholine receptor alpha3/beta4 (Sus scrofa)
Experiment: Binding affinity to Nicotinic acetylcholine receptor alpha3-beta4 using +/-[3H]epibatidine as radioligand in pig adrenal gland

| Compound | Ki [nM] |
| --- | --- |
| C1=C(c2ccnnc2)C2CC[C@H](CC1)N2 [2-Pyridazin-4-yl-9-aza-bicyclo[4.2.1]non-2-ene] | 2.5 |
| C1=C(c2cncnc2)C2CC[C@H](CC1)N2 [2-Pyrimidin-5-yl-9-aza-bicyclo[4.2.1]non-2-ene] | 20 |

From BindingDB's records for doi:10.1021/jm010936y (2002)
